Source: ChEMBL document CHEMBL1201861, “Genomics of Drug Sensitity in Cancer screening data, Wellcome Trust Sanger Institute”

Legend:
Assay in all cases: cells
[1] = test system: CaR-1; format: functional, cell-based, Homo sapiens; settings: Homo sapiens, CaR-1;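 note: growth inhibition of human CaR-1 cancer cells, read out with a cell viability assay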
Description: SANGER: Inhibition of human CaR-1 cell growth in a cell viability assay.

[2] = test system: ChaGo-K-1; format: functional, cell-based; settings: Homo sapiens;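 note: growth inhibition of ChaGo-K-1 cells, read out with a cell viability assay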
Description: SANGER: Inhibition of human ChaGo-K-1 cell growth in a cell viability assay.

[3] = test system: DMS-273; format: functional, cell-based, Homo sapiens; settings: Homo sapiens, DMS-273
Description: SANGER: Inhibition of human DMS-273 cell growth in a cell viability assay.

[4] = test system: DOHH-2; format: functional, cell-based; settings: Homo sapiens;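 note: growth inhibition of human DOHH-2 cells, read out with a cell viability assay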
Description: SANGER: Inhibition of human DOHH-2 cell growth in a cell viability assay.

[5] = test system: DU-145; format: functional, cell-based, Homo sapiens; settings: Homo sapiens, DU-145
Description: SANGER: Inhibition of human DU-145 cell growth in a cell viability assay.

[6] = test system: EKVX; format: functional, cell-based, Homo sapiens; settings: Homo sapiens, EKVX;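 note: growth inhibition of human EKVX cells, read out with a cell viability assay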
Description: SANGER: Inhibition of human EKVX cell growth in a cell viability assay.

[7] = test system: EW-3; format: functional, cell-based; settings: Homo sapiens;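 note: cell viability assay read-out, IC50 reflects inhibition of growth of the EW-3 cells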
Description: SANGER: Inhibition of human EW-3 cell growth in a cell viability assay.

[8] = test system: HCC 2998; format: functional, cell-based, Homo sapiens; settings: Homo sapiens, HCC 2998;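 note: growth inhibition of human HCC2998 cells, measured with a cell viability read-out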
Description: SANGER: Inhibition of human HCC2998 cell growth in a cell viability assay.

[9] = test system: HCC38; format: functional, cell-based, Homo sapiens; settings: Homo sapiens, HCC38;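 note: cell viability assay on the human HCC38 cell line, with IC50 marking the concentration that inhibits cell growth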
Description: SANGER: Inhibition of human HCC38 cell growth in a cell viability assay.

[10] = test system: HDLM-2; format: functional, cell-based; settings: Homo sapiens;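 note: cell viability assay measuring suppression of HDLM-2 proliferation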
Description: SANGER: Inhibition of human HDLM-2 cell growth in a cell viability assay.

[11] = test system: HN; format: functional, cell-based, Homo sapiens; settings: Homo sapiens, HN
Description: SANGER: Inhibition of human HN cell growth in a cell viability assay.

[12] = test system: HT-29; format: functional, cell-based, Homo sapiens; settings: Homo sapiens, HT-29;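 note: growth inhibition of human HT-29 cells, read out by a cell viability assay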
Description: SANGER: Inhibition of human HT-29 cell growth in a cell viability assay.

[13] = test system: HTC-C3; format: functional, cell-based, Homo sapiens; settings: Homo sapiens, HTC-C3;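 note: inhibition of cell growth, read out with a cell viability assay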
Description: SANGER: Inhibition of human HTC-C3 cell growth in a cell viability assay.

[14] = test system: IGROV-1; format: functional, cell-based, Homo sapiens; settings: Homo sapiens, IGROV-1;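 note: reduction of IGROV-1 cell growth, read out with a viability assay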
Description: SANGER: Inhibition of human IGROV-1 cell growth in a cell viability assay.

[15] = test system: KALS-1; format: functional, cell-based, Homo sapiens; settings: Homo sapiens, KALS-1;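 note: growth inhibition of KALS-1 cells, determined with a cell viability assay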
Description: SANGER: Inhibition of human KALS-1 cell growth in a cell viability assay.

[16] = test system: KNS-81-FD; format: functional, cell-based, Homo sapiens; settings: Homo sapiens, KNS-81-FD;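 note: growth inhibition of KNS-81-FD cells, read out with a cell viability assay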
Description: SANGER: Inhibition of human KNS-81-FD cell growth in a cell viability assay.

[17] = test system: KP-N-YS; format: functional, cell-based; settings: Homo sapiens;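 note: cell viability assay measuring inhibition of cell line growth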
Description: SANGER: Inhibition of human KP-N-YS cell growth in a cell viability assay.

[18] = test system: KYSE-510; format: functional, cell-based, Homo sapiens; settings: Homo sapiens, KYSE-510;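 note: cell viability readout used to measure how strongly growth of the cell line is suppressed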
Description: SANGER: Inhibition of human KYSE-510 cell growth in a cell viability assay.

[19] = test system: LB1047-RCC; format: functional, cell-based, Homo sapiens; settings: Homo sapiens, LB1047-RCC;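 note: inhibition of cell growth, determined with a cell viability assay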
Description: SANGER: Inhibition of human LB1047-RCC cell growth in a cell viability assay.

[20] = test system: LB831-BLC; format: functional, cell-based, Homo sapiens; settings: Homo sapiens, LB831-BLC;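 note: growth inhibition of LB831-BLC cells, read out with a cell viability assay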
Description: SANGER: Inhibition of human LB831-BLC cell growth in a cell viability assay.

[21] = test system: LCLC-103H cell line; format: functional, cell-based, Homo sapiens; settings: Homo sapiens, LCLC-103H
Description: SANGER: Inhibition of human LCLC-103H cell growth in a cell viability assay.

[22] = test system: NB10; format: functional, cell-based, Homo sapiens; settings: Homo sapiens, NB10;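 note: growth inhibition of NB10 cells, read out by a cell viability assay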
Description: SANGER: Inhibition of human NB10 cell growth in a cell viability assay.

[23] = test system: NCI-H1299; format: functional, cell-based, Homo sapiens; settings: Homo sapiens, NCI-H1299;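 note: growth inhibition of human NCI-H1299 cells, read out by a cell viability assay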
Description: SANGER: Inhibition of human NCI-H1299 cell growth in a cell viability assay.

[24] = test system: NCI-H2030; format: functional, cell-based, Homo sapiens; settings: Homo sapiens, NCI-H2030;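 note: growth inhibition of human NCI-H2030 cells, read out by a cell viability assay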
Description: SANGER: Inhibition of human NCI-H2030 cell growth in a cell viability assay.

[25] = test system: NCI-H28; format: functional, cell-based, Homo sapiens; settings: Homo sapiens, NCI-H28;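 note: growth inhibition of human NCI-H28 cells, read out as cell viability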
Description: SANGER: Inhibition of human NCI-H28 cell growth in a cell viability assay.

[26] = test system: NCI-H69; format: functional, cell-based; settings: Homo sapiens;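 note: growth inhibition of the cell line, read out with a cell viability assay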
Description: SANGER: Inhibition of human NCI-H69 cell growth in a cell viability assay.

[27] = test system: NH-12; format: functional, cell-based, Homo sapiens; settings: Homo sapiens, NH-12;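 note: growth inhibition of NH-12 cells, read out with a cell viability assay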
Description: SANGER: Inhibition of human NH-12 cell growth in a cell viability assay.

[28] = test system: NOS-1; format: functional, cell-based, Homo sapiens; settings: Homo sapiens, NOS-1;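 note: growth inhibition of the human NOS-1 cell line, read out with a cell viability assay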
Description: SANGER: Inhibition of human NOS-1 cell growth in a cell viability assay.

[29] = test system: NY; format: functional, cell-based, Homo sapiens; settings: Homo sapiens, NY
Description: SANGER: Inhibition of human NY cell growth in a cell viability assay.

[30] = test system: OAW-42; format: functional, cell-based, Homo sapiens; settings: Homo sapiens, OAW-42;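 note: growth inhibition of OAW-42 cells, read out with a cell viability assay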
Description: SANGER: Inhibition of human OAW-42 cell growth in a cell viability assay.

[31] = test system: RKO; format: functional, cell-based, Homo sapiens; settings: Homo sapiens, RKO;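 note: growth inhibition of human RKO cells, read out with a cell viability assay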
Description: SANGER: Inhibition of human RKO cell growth in a cell viability assay.

[32] = test system: RPMI-8226; format: functional, cell-based; settings: Homo sapiens
Description: SANGER: Inhibition of human RPMI-8226 cell growth in a cell viability assay.

[33] = test system: SK-LMS-1; format: functional, cell-based, Homo sapiens; settings: Homo sapiens, SK-LMS-1;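 note: growth inhibition of human SK-LMS-1 cells, read out with a cell viability assay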
Description: SANGER: Inhibition of human SK-LMS-1 cell growth in a cell viability assay.

[34] = test system: SK-MEL-28; format: functional, cell-based; settings: Homo sapiens;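 note: growth inhibition of human SK-MEL-28 cells, read out with a cell viability assay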
Description: SANGER: Inhibition of human SK-MEL-28 cell growth in a cell viability assay.

[35] = test system: SK-MEL-30; format: functional, cell-based; settings: Homo sapiens;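 note: growth inhibition of SK-MEL-30 cells, determined with a cell viability assay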
Description: SANGER: Inhibition of human SK-MEL-30 cell growth in a cell viability assay.

[36] = test system: SK-N-AS; format: functional, cell-based, Homo sapiens; settings: Homo sapiens, SK-N-AS;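 note: growth inhibition of human SK-N-AS cells, measured with a cell viability assay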
Description: SANGER: Inhibition of human SK-N-AS cell growth in a cell viability assay.

[37] = test system: SW1417; format: functional, cell-based, Homo sapiens; settings: Homo sapiens, SW1417;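 note: growth inhibition of human SW1417 cells, read out with a cell viability assay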
Description: SANGER: Inhibition of human SW1417 cell growth in a cell viability assay.

[38] = test system: SW948; format: functional, cell-based, Homo sapiens; settings: Homo sapiens, SW948;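 note: growth inhibition of SW948 cells, read out with a cell viability assay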
Description: SANGER: Inhibition of human SW948 cell growth in a cell viability assay.

[39] = test system: SW 954; format: functional, cell-based, Homo sapiens; settings: Homo sapiens, SW 954;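 note: growth inhibition of SW954 human cancer cells, read out as cell viability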
Description: SANGER: Inhibition of human SW954 cell growth in a cell viability assay.

[40] = test system: 647-V; format: functional, cell-based, Homo sapiens; settings: Homo sapiens, 647-V;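 note: growth inhibition of 647-V cells, read out with a cell viability assay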
Description: SANGER: Inhibition of human 647-V cell growth in a cell viability assay.

[41] = test system: A101D; format: functional, cell-based, Homo sapiens; settings: Homo sapiens, A101D;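 note: growth inhibition of the cell line, measured with a viability assay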
Description: SANGER: Inhibition of human A101D cell growth in a cell viability assay.

[42] = test system: A3-KAW; format: functional, cell-based; settings: Homo sapiens;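 note: growth inhibition of human A3-KAW cells, read out with a cell viability assay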
Description: SANGER: Inhibition of human A3-KAW cell growth in a cell viability assay.

[43] = test system: A4-Fuk; format: functional, cell-based; settings: Homo sapiens;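 note: growth inhibition of A4-Fuk cells, read out by a cell viability assay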
Description: SANGER: Inhibition of human A4-Fuk cell growth in a cell viability assay.

[44] = test system: AGS; format: functional, cell-based, Homo sapiens; settings: Homo sapiens, AGS;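 note: growth inhibition of AGS cells, determined with a cell viability assay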
Description: SANGER: Inhibition of human AGS cell growth in a cell viability assay.

[45] = test system: ATN-1; format: functional, cell-based; settings: Homo sapiens;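 note: growth inhibition of human ATN-1 cells, read out with a cell viability assay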
Description: SANGER: Inhibition of human ATN-1 cell growth in a cell viability assay.

[46] = test system: BFTC-909; format: functional, cell-based, Homo sapiens; settings: Homo sapiens, BFTC-909
Description: SANGER: Inhibition of human BFTC-909 cell growth in a cell viability assay.

[47] = test system: BHY; format: functional, cell-based, Homo sapiens; settings: Homo sapiens, BHY;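 note: cell growth inhibition read out by a viability assay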
Description: SANGER: Inhibition of human BHY cell growth in a cell viability assay.

[48] = test system: C8166; format: functional, cell-based; settings: Homo sapiens;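 note: growth inhibition of human C8166 cells measured by a cell viability assay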
Description: SANGER: Inhibition of human C8166 cell growth in a cell viability assay.

[49] = test system: UMC-11; format: functional, cell-based, Homo sapiens; settings: Homo sapiens, UMC-11;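 note: growth inhibition of UMC-11 cells, read out with a cell viability assay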
Description: SANGER: Inhibition of human UMC-11 cell growth in a cell viability assay.

[50] = test system: no-10; format: functional, cell-based, Homo sapiens; settings: Homo sapiens;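 note: growth inhibition of no-10 cells, read out with a cell viability assay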
Description: SANGER: Inhibition of human no-10 cell growth in a cell viability assay.

[51] = test system: CAS-1; format: functional, cell-based, Homo sapiens; settings: Homo sapiens, CAS-1;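 note: growth inhibition of CAS-1 cells, measured with a cell viability assay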
Description: SANGER: Inhibition of human CAS-1 cell growth in a cell viability assay.

[52] = test system: COLO-680N; format: functional, cell-based, Homo sapiens; settings: Homo sapiens, COLO-680N;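 note: cell viability assay used to measure inhibition of COLO-680N cell growth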
Description: SANGER: Inhibition of human COLO-680N cell growth in a cell viability assay.

## C=CCNC1=C2C[C@@H](C)C[C@H](OC)[C@H](O)[C@@H](C)/C=C(\C)[C@H](OC(N)=O)[C@@H](OC)/C=C\C=C(/C)C(=O)NC(=CC1=O)C2=O [TANESPIMYCIN]
[1]
  IC50: 0.0455 µM
[2]
  IC50: 0.317 µM
[3]
  IC50: 0.339 µM
[4]
  IC50: > 1 µM
[5]
  IC50: > 1 µM
[6]
  IC50: > 1 µM
[7]
  IC50: 0.127 µM
[8]
  IC50: 0.0735 µM
[9]
  IC50: 0.301 µM
[10]
  IC50: > 1 µM
[11]
  IC50: 0.0427 µM
[12]
  IC50: 0.0692 µM
[13]
  IC50: 0.265 µM
[14]
  IC50: 0.184 µM
[15]
  IC50: 0.114 µM
[16]
  IC50: 0.184 µM
[17]
  IC50: 0.375 µM
[18]
  IC50: 0.0465 µM
[19]
  IC50: 0.053 µM
[20]
  IC50: 0.139 µM
[21]
  IC50: > 1 µM
[22]
  IC50: > 1 µM
[23]
  IC50: 0.163 µM
[24]
  IC50: 0.0541 µM
[25]
  IC50: 0.118 µM
[26]
  IC50: 0.976 µM
[27]
  IC50: > 1 µM
[28]
  IC50: 0.975 µM
[29]
  IC50: > 1 µM
[30]
  IC50: > 1 µM
[31]
  IC50: 0.118 µM
[32]
  IC50: 0.663 µM
[33]
  IC50: > 1 µM
[34]
  IC50: 0.113 µM
[35]
  IC50: 0.912 µM
[36]
  IC50: > 1 µM
[37]
  IC50: > 1 µM
[38]
  IC50: > 1 µM
[39]
  IC50: 0.292 µM
[40]
  IC50: > 1 µM
[41]
  IC50: 0.481 µM
[42]
  IC50: 0.342 µM
[43]
  IC50: > 1 µM
[44]
  IC50: 0.0194 µM
[45]
  IC50: > 1 µM
[46]
  IC50: 0.0797 µM
[47]
  IC50: 0.237 µM
[48]
  IC50: > 1 µM
[49]
  IC50: 0.552 µM
[50]
  IC50: > 1 µM
[51]
  IC50: > 1 µM
[52]
  IC50: 0.194 µM

## Cn1cncc1[C@@](N)(c1ccc(Cl)cc1)c1ccc2c(c1)c(-c1cccc(Cl)c1)cc(=O)n2C [TIPIFARNIB]
[1]
  IC50: > 16 µM
[2]
  IC50: 1.75 µM
[3]
  IC50: 0.72 µM
[4]
  IC50: 7.91 µM
[5]
  IC50: 8.66 µM
[6]
  IC50: > 16 µM
[7]
  IC50: > 16 µM
[8]
  IC50: 0.384 µM
[9]
  IC50: 6.1 µM
[10]
  IC50: > 16 µM
[11]
  IC50: > 16 µM
[12]
  IC50: 0.547 µM
[13]
  IC50: 4.83 µM
[14]
  IC50: 0.208 µM
[15]
  IC50: > 16 µM
[16]
  IC50: 11.2 µM
[17]
  IC50: > 16 µM
[18]
  IC50: 0.977 µM
[19]
  IC50: > 16 µM
[20]
  IC50: 2.64 µM
[21]
  IC50: 0.129 µM
[22]
  IC50: 11.7 µM
[23]
  IC50: 0.693 µM
[24]
  IC50: 2.35 µM
[25]
  IC50: > 16 µM
[26]
  IC50: > 16 µM
[27]
  IC50: 5.59 µM
[28]
  IC50: 2.13 µM
[29]
  IC50: 1.93 µM
[30]
  IC50: 0.956 µM
[31]
  IC50: 1.23 µM
[32]
  IC50: 9.03 µM
[33]
  IC50: 0.184 µM
[34]
  IC50: > 16 µM
[35]
  IC50: 3.74 µM
[36]
  IC50: > 16 µM
[37]
  IC50: > 16 µM
[38]
  IC50: > 16 µM
[39]
  IC50: 2.9 µM
[40]
  IC50: 2.3 µM
[41]
  IC50: 1.87 µM
[42]
  IC50: 0.901 µM
[43]
  IC50: 0.0206 µM
[44]
  IC50: 4.53 µM
[45]
  IC50: 2.54 µM
[46]
  IC50: 8.37 µM
[47]
  IC50: 1.05 µM
[48]
  IC50: > 16 µM
[49]
  IC50: > 16 µM
[50]
  IC50: > 16 µM
[51]
  IC50: > 16 µM
[52]
  IC50: 5.63 µM
